Assays:
[1] = system: RhlR; set-up: method as in PMID 28119451; details: cited from earlier work
[2] = biological target: T1, RhlR (T58I) (Pseudomonas aeruginosa, UniProt P54292, T58I); experiment: E. coli prhlA-luxCDABE luciferase reporter assay; assay type: cell-based, Escherichia coli
T1 construct: expressed in transfected cells; host or cells: E. coli carrying pBAD-A-rhlR mutant, pCS26-prhlA-luxCDABE and pACYC-pqsE or empty pACYC
T1 sequence (P54292 1-241 T58I): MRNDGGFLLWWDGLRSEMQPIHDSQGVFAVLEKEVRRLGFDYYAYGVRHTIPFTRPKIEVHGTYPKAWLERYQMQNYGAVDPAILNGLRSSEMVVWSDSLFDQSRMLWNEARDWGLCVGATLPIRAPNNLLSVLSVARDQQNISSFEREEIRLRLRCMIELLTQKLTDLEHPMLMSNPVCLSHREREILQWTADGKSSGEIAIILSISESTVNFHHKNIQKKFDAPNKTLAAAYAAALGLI
From the text: Previous analysis of the RhlR LBP focused on highly conserved residues that were known from other AHL-binding proteins to be important contacts for AHL molecules, particularly the lactone head group. We performed conservation analyses on 300 LuxR-type receptors to determine variable and moderately conserved residues in the LBP (Fig. 1B) and, in conjunction with our previously determined experimental structure of WT RhlR bound to the synthetic agonist mBTL, used for docking C4- and C6HSL. Based on our docking simulations, C4- and C6HSL occupy a similar position in the LBP as mBTL, a highly efficacious activator of RhlR (Fig. 1C; Fig. S1). We targeted residues A44, G46, T58, L69, Y72, D81, I84, W96, and W108 (Fig. 1B and C). These residues were selected because of their proximity to the acyl tail of C4HSL, as well as the differences in conservation that are observed at these sites. We used an E. coli luciferase reporter assay to monitor ligand-dependent activation of WT RhlR and RhlR variants. WT RhlR and RhlR variants were expressed under the control of an arabinose-inducible promoter (Fig. S2). Transcription was monitored by light production via the expression of the luxCDABE operon controlled by the RhlR-dependent promoter of rhlA. Binding of RhlR to the rhlA promoter is highly dependent on the C4HSL-RhlR interaction, based on ChIP-seq analyses performed in P. aeruginosa as well as previously published E. coli reporter systems ([34], [39]). After expressing WT RhlR and RhlR variants in the E. coli reporter system, we performed dose response assays using C4HSL to calculate the concentration of C4HSL required to activate the reporter system to 50% maximum levels (EC50 value; Table 1). As expected, transcription activation by WT RhlR increased with increased C4HSL levels, with an EC50 value of ~2 µM. We observed a range of responses. Figure 1C depicts the targeted residues, which are colored based on the effect of amino acid substitution.
RhlR requires the accessory-binding protein, PqsE, for maximal activity. To determine if PqsE expression altered the activation of RhlR variants, we assessed AHL-dependent RhlR activation of the prhlA-luxCDABE reporter in the presence of a third plasmid that constitutively expresses PqsE in E. coli. […] RhlR variants that were still active but with increased EC50 values for C4HSL could have their activity enhanced by PqsE. […] Thus, alterations to the LBP can diminish the additive effect of PqsE-dependent transcription, indicating a potential role of allosteric conformational changes dependent on ligand occupancy. […] RhlR variants at residues I84 and W108 could not be activated by C4HSL, and thus, light levels remained low at all concentrations that were tested. Unlike the aforementioned variants, RhlR I84M/W and RhlR W108F/Y were activated by the expression of PqsE (Fig. S4).
All E. coli strains in this study were grown overnight with shaking in 5 mL Luria-Bertani (LB) media supplemented with 100 µg/mL ampicillin, 50 µg/mL kanamycin, and 15 µg/mL tetracycline at 37°C overnight. Overnight cultures were diluted 1:100 into fresh media, grown at 37°C with shaking for 2 h until reaching OD600 = 0.4. Cultures were induced with a final concentration of 0.1% arabinose, and 198 μL of the induced culture was mixed with 2 μL of C4HSL dilutions in a clear-bottom, black-opaque 96-well plate (Corning) and grown at 37°C with shaking for 4 h. The C4HSL dilution series was performed 1:1 in dimethyl sulfoxide (DMSO) with a top final concentration of 10 μM. Luminescence and optical density were recorded using a Glomax (Promega) plate reader.

Compound: CCCC(=O)N[C@H]1CCOC1=O [C4HSL, N-butyryl-L-homoserine lactone]
- EC50 [1]: ~5000 nM
- EC50 ([2]; Vector (no pqsE)): 1820 nM
- EC50 ([2]; pqsE co-expressed): 120 nM

Source: PMC13192270, “RhlR quorum-sensing receptor ligand sensitivity regulates the differential expression of phenazine genes in Pseudomonas aeruginosa” (Journal of Bacteriology, 2026)
